From doi:10.1101/2020.08.18.255380v4 (biorxiv, 2021) come the findings set out here.

In assay [1] the target is DalS (Salmonella enterica, UniProt Q8ZPA3). The assay can be described thus: fluorescence. It is filed as binding.
Assay [2] deals with DalS (Salmonella enterica, UniProt Q8ZPA3, A147S). Kind of assay: biochemical.
Assay [3] concerns the target DalS (Salmonella enterica, UniProt Q8ZPA3, A147S/A76D/D216E/F117L/T197Y/Y148Q). The assay can be described thus: biochemical.
The target of assay [4] is DalS (Salmonella enterica, UniProt Q8ZPA3, Y148Q). The assay can be described thus: biochemical.
For assay [5], the target named is DalS (Salmonella enterica, UniProt Q8ZPA3, A147S/F117L/Y148Q). The assay can be described thus: biochemical.
Assay [6] concerns the target DalS (Salmonella enterica, UniProt Q8ZPA3, A147S/A76D/D216E/F117L/S60R/Y148Q). The assay can be described thus: biochemical.
Assay [7] deals with DalS (Salmonella enterica, UniProt Q8ZPA3, F117L). The assay can be described thus: biochemical.

As usually defined, the Kd is the constant that tells how readily two partners part at equilibrium. High values mean lower affinity, low ones higher affinity. On to `C[C@@H](N)C(=O)O` [D-alanine], for which the dissociation constant (Kd) amounted to 5.4 ± 0.4 µM at DalS [1], 0.62 ± 0.03 µM on DalS [2] and 14 ± 1 µM at DalS [3].

On to `N[C@H](CO)C(=O)O` [D-serine], for which the dissociation constant (Kd) on DalS [1] was 12 ± 1 µM; at DalS [4], 101 ± 3 µM; at DalS [2], 1.8 ± 0.4 µM; at DalS [5] it was 43 ± 1 µM; at DalS [6], 70 ± 17 µM; on DalS [7], 3.7 ± 0.2 µM. On DalS [3], binding was characterised by a dissociation constant (Kd) of 4.8 ± 0.2 µM.

In the case of `NCC(=O)O` [glycine], the dissociation constant (Kd) at DalS [1] was found to be 5 ± 1 µM; at DalS [3], 40 ± 2 µM.
